In patent US20240002375A1, “2-(INDAZOL-5-YL)-6-(PIPERIDIN-4-YL)-1,7-NAPHTHYRIDINE DERIVATIVES AND RELATED COMPOUNDS AS MODULATORS FOR SPLICING NUCLEIC ACIDS AND FOR THE TRE” (REMIX THERAPEUTICS INC., priority 2020, published 2024):
Where two headings read alike, the source gives them in different places.

Legend:
Type in all cases: cell-based
HTT mRNA = test: Splicing assay (RT-qPCR) of HTT mRNA alternative junction (AJ) and canonical junction (CJ)
Summary of the method: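 HTT splice switching read as formation of an alternative-exon junction (AJ) versus the canonical junction (CJ) by one-step RT-qPCR on cell lysates, with GAPDH/GUSB housekeeping normalisation in K562 and PPIA in A673. Compounds: 11-point 3-fold series up to 10 uM, ≤0.25% DMSO, 24 h at 37 °C.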

SMN2 CJ mRNA = test: Gene panel canonical junction qPCR splicing assay, SMN2; conditions: Table 4, read-out: SMN2 IC50 (decrease in CJ mRNA levels)
Summary of the method: (§1)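 A673 or K562 cells treated with compound; canonical-junction mRNA measured by RT-qPCR with junction-spanning primer/probe sets, normalized to GAPDH, GUSB or PPIA and DMSO (2^−ΔΔCt). IC50 for CJ decrease from 4-parameter logistic fit of percentage response.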

Target C CJ mRNA = test: Gene panel canonical junction qPCR splicing assay, Target C; conditions: Table 4, read-out: Target C IC50 (decrease in CJ mRNA levels)
Summary of the method: as §1

HTT CJ mRNA = test: Gene panel canonical junction qPCR splicing assay, HTT; conditions: Table 4, read-out: HTT IC50 (decrease in CJ mRNA levels)
Summary of the method: as §1

[1] = decrease in CJ mRNA, A673 or K562 cells, 24 hours, read-out: HTT CJ IC50
[2] = increase in AJ mRNA, A673 or K562 cells, 24 hours, read-out: HTT AJ AC50

Compound | IC50 (HTT mRNA; [1]) [nM] | AC50 (HTT mRNA; [2]) [nM] | IC50 (SMN2 CJ mRNA) [µM] | IC50 (Target C CJ mRNA) [µM] | IC50 (HTT CJ mRNA) [µM] | AC50 (HTT mRNA; 24 h, read-out: HTT AJ AC50 (nM)) [nM] | IC50 (HTT mRNA; 24 h, read-out: HTT CJ IC50 (nM)) [nM]
Cc1c(O)c(-c2ccc3nc(N4CC[C@H](NC5CC5)C4)ccc3n2)cc2cn(C)nc12 (single isomer, unassigned) [Compound 260] | < 100 | < 100 | < 0.1 | < 0.1 | < 0.1 |  | 
Cc1nc2c(F)c(O)c(-c3ccc4nc(N5CC[C@H](NC(C)(C)C)C5)ccc4n3)cc2o1 (single isomer, unassigned) [Compound 255, 6-{6-[3-(tert-butylamino)pyrrolidin-1-yl]-1,5-naphthyridin-2-yl}-4-fluoro-2-methyl-1,3-benzoxazol-5-ol] | < 100 | < 100 | < 0.1 | < 0.1 | < 0.1 |  | 
Cn1cc2cc(-c3ccc4nc(C5CCNCC5)ccc4n3)ccc2n1 [Compound 184, 2-(2-methylindazol-5-yl)-6-(piperidin-4-yl)-1,5-naphthyridine] | 1000 to 10000 | 100 to 1000 | < 0.1 | 0.1 to 1 | 1 to 10 |  | 
CN[C@H]1CCN(c2ccc3nc(-c4cc5cn(C)nc5cc4O)ccc3n2)C1 [Compound 170, 2-methyl-5-{6-[(3S)-3-(methylamino)pyrrolidin-1-yl]-1,5-naphthyridin-2-yl}indazol-6-ol] | < 100 | 100 to 1000 | < 0.1 | 0.1 to 1 | < 0.1 |  | 
c1c[nH]c(-c2ccc3nc(C4CCNCC4)ccc3n2)n1 [Compound 152, 2-(1H-imidazol-2-yl)-6-(piperidin-4-yl)-1,5-naphthyridine] | > 10000 | > 10000 | 1 to 10 | > 10 | > 10 |  | 
Cn1cc2cc(-c3ccc4nc(N5CC[C@H](NC(C)(C)C)C5)ccc4n3)c(O)cc2n1 [Compound 154, 5-{6-[(3S)-3-(tert-butylamino)pyrrolidin-1-yl]-1,5-naphthyridin-2-yl}-2-methylindazol-6-ol] | < 100 | < 100 | < 0.1 | < 0.1 | < 0.1 |  | 
CN(C)C1CCN(c2ccc3nc(-c4cc5cn(C)nc5cc4O)ccc3n2)C1 (stereo not shown) [Compound 129, 5-[6-[3-(dimethylamino)pyrrolidin-1-yl]-1,5-naphthyridin-2-yl]-2-methylindazol-6-ol] | 100 to 1000 | 100 to 1000 | < 0.1 | 0.1 to 1 | 0.1 to 1 |  | 
Cn1cc2cc(-c3ccc4nc(N5CC(NC(C)(C)C)C5)ccc4n3)c(O)cc2n1 [Compound 165] | 1000 to 10000 | 1000 to 10000 | 1 to 10 | 1 to 10 | 1 to 10 |  | 
Cc1nc2cc(O)c(-c3ccc4nc(C5CCNCC5)ccc4n3)cc2s1 [Compound 148] | 1000 to 10000 | 1000 to 10000 | < 0.1 | 1 to 10 | 1 to 10 |  | 
Cn1cc2cc(-c3ccc4nc(N5CC[C@@H](NC(C)(C)C)C5)ccc4n3)c(O)cc2n1 [Compound 153, 5-{6-[(3R)-3-(tert-butylamino)pyrrolidin-1-yl]-1,5-naphthyridin-2-yl}-2-methylindazol-6-ol] | < 100 | < 100 | < 0.1 | < 0.1 | < 0.1 |  | 
Cc1nc2c(C)c(O)c(-c3ccc4nc(N5CCC(NC6CCC6)C5)ccc4n3)cc2o1 (stereo not shown) [Compound 235, 6-{6-[3-(cyclobutylamino)pyrrolidin-1-yl]-1,5-naphthyridin-2-yl}-2,4-dimethyl-1,3-benzoxazol-5-ol] | < 100 | < 100 | < 0.1 | < 0.1 | < 0.1 |  | 
Cn1cc2cc(-c3ccc4nc(N5CC[C@@H](NC6COC6)C5)ccc4n3)c(O)cc2n1 [Compound 188] | 100 to 1000 | 100 to 1000 | < 0.1 | 1 to 10 | 0.1 to 1 |  | 
Cc1nc2cc(O)c(-c3ccc4nc(N5CC[C@H](NC6CC6)C5)ccc4n3)cc2o1 (single isomer, unassigned) [Compound 211, 6-{6-[3-(cyclopropylamino)pyrrolidin-1-yl]-1,5-naphthyridin-2-yl}-2-methyl-1,3-benzoxazol-5-ol] | < 100 | < 100 | < 0.1 | 0.1 to 1 | < 0.1 |  | 
Cn1cc2cc(-c3ccc4nc(N5CCC6(CCN6)C5)ccc4n3)c(O)cc2n1 (stereo not shown) [Compound 178, 5-(6-{1,6-diazaspiro[3.4]octan-6-yl}-1,5-naphthyridin-2-yl)-2-methylindazol-6-ol] | 100 to 1000 | 100 to 1000 | < 0.1 | 1 to 10 | 0.1 to 1 |  | 
Cn1cc2cc(-c3ccc4nc(N5CCC(NC6CC6)C5)ccc4n3)c(O)cc2n1 (stereo not shown) [Compound 158] | < 100 | < 100 | < 0.1 | < 0.1 | < 0.1 |  | 
Cn1cc2cc(-c3ccc4nc(N5CC[C@@H](NCC(F)(F)F)C5)ccc4n3)c(O)cc2n1 (stereo in doubt) [Compound 245] | > 10000 | > 10000 | 1 to 10 | > 10 | > 10 |  | 
Cn1cc2cc(-c3ccc4cc(C5CCNCC5)ccc4n3)c(O)c(F)c2n1 [Compound 241, 7-fluoro-2-methyl-5-[6-(piperidin-4-yl)quinolin-2-yl]indazol-6-ol] | < 100 | < 100 | < 0.1 | < 0.1 | < 0.1 |  | 
Cn1cc2cc(-c3ccc4nc(N5CCC56CCNCC6)ccc4n3)c(O)cc2n1 [Compound 164] | 100 to 1000 | 100 to 1000 | 0.1 to 1 | 0.1 to 1 | 0.1 to 1 |  | 
Cn1cc2c(O)c(-c3cc4ccc(C5CCNCC5)nc4cn3)cc(Br)c2n1 [Compound 141] | 1000 to 10000 | 1000 to 10000 | 0.1 to 1 | > 10 | 1 to 10 |  | 
Cn1cc2cc(-c3ccc4nc(N5CC[C@H](NC6CCC6)C5)ccc4n3)c(O)cc2n1 [Compound 156, 5-{6-[(3S)-3-(cyclobutylamino)pyrrolidin-1-yl]-1,5-naphthyridin-2-yl}-2-methylindazol-6-ol] |  |  | < 0.1 | 0.1 to 1 | < 0.1 | < 100 | < 100
O=C(Nc1cn[nH]c1)Nc1cc2nc(N3CCNCC3)ccc2cn1 [Compound 111, 1-[2-(piperazin-1-yl)-1,6-naphthyridin-7-yl]-3-(1H-pyrazol-4-yl)urea] | > 10000 | > 10000 | > 10 | > 10 | > 10 |  | 
Cc1cn2cc(-c3ccc4nc(N5CCC(NC(C)(C)C)C5)ccc4n3)nc(C)c2n1 (stereo not shown) [Compound 206] | 1000 to 10000 | 1000 to 10000 | 1 to 10 | 1 to 10 | 1 to 10 |  | 
O=C(NCc1ccn[nH]1)Nc1cc2nc(N3CCNCC3)ccc2cn1 [Compound 112, 1-[2-(piperazin-1-yl)-1,6-naphthyridin-7-yl]-3-(2H-pyrazol-3-ylmethyl)urea] | > 10000 | > 10000 | > 10 | > 10 | > 10 |  | 
Cn1cc2cc(-c3ccc4c(F)c(C5CCNCC5)ccc4n3)c(O)cc2n1 [Compound 115, 5-[5-fluoro-6-(piperidin-4-yl)quinolin-2-yl]-2-methylindazol-6-ol] | 1000 to 10000 | 1000 to 10000 | < 0.1 | 1 to 10 | 1 to 10 |  | 
Cc1cn2nc(-c3ccc4nc(C5CCNCC5)ccc4n3)c(O)cc2n1 [Compound 103, 2-methyl-6-[6-(piperidin-4-yl)-1,5-naphthyridin-2-yl]imidazo[1,2-b]pyridazin-7-ol] | 100 to 1000 | 100 to 1000 | > 10 | 1 to 10 | 0.1 to 1 |  | 
Cn1cc2cc(-c3ccc4nc(N5CCC(NC(C)(C)C)CC5)ccc4n3)c(O)cc2n1 [Compound 132, 5-[6-[4-(tert-butylamino)piperidin-1-yl]-1,5-naphthyridin-2-yl]-2-methylindazol-6-ol] | > 10000 | > 10000 | > 10 | > 10 | > 10 |  | 
CN1CCN(c2ccc3nc(-c4cc5cn(C)nc5cc4O)ccc3n2)CC1 [Compound 116, 2-methyl-5-[6-(4-methylpiperazin-1-yl)-1,5-naphthyridin-2-yl]indazol-6-ol] | 1000 to 10000 | 1000 to 10000 | < 0.1 | 1 to 10 | 1 to 10 |  | 
Cn1cc2cc(-c3ccc4nc(N5CC[C@@H](NC6(C)CC6)C5)ccc4n3)c(O)cc2n1 (single isomer, unassigned) [Compound 220] | < 100 | < 100 | < 0.1 | < 0.1 | < 0.1 |  | 
CN1CCC(c2ccc3nc(-c4cc5cn(C)nc5cc4O)ccc3n2)CC1 [Compound 142, 2-methyl-5-[6-(1-methylpiperidin-4-yl)-1,5-naphthyridin-2-yl]indazol-6-ol] | 100 to 1000 | 100 to 1000 | < 0.1 | 0.1 to 1 | 0.1 to 1 |  | 
